Experimental data as given in patent publication US11214803B2, “Modulators of YAP1 expression” (Ionis Pharmaceuticals, Inc., priority 2019, dated 2022).
Strand notation (5' to 3'): a small letter for the sugar, then the base; units joined by * are phosphorothioate-linked, units joined directly phosphodiester-linked; [ ] holds rarer units or linkages, { } end groups; capitals alone tell only the bases. e = 2'-O-(2-methoxyethyl) (MOE); k = constrained ethyl (cEt); [5mC] = 5-methylcytosine; d = 2'-deoxy (DNA); m = 2'-O-methyl

Tested on: Yap1 mRNA
Assay: Antisense inhibition of human Yap1 in SNU-449 cells by modified oligonucleotides, single dose (Example 5, RTS36584)
Assay type: cell-based
Conditions: Table 39; SNU-449 cells, 10,000 cells per well, free uptake, 2,000 nM oligonucleotide, approx. 48 hours; RTS36584; normalized to RIBOGREEN; Yap1 mRNA relative to untreated control
Summary of the method: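 SNU-449 cells (10,000/well) took up 2,000 nM oligonucleotide by free uptake for about 48 h. Yap1 mRNA was measured by qRT-PCR with primer probe set RTS36584 and normalised to RIBOGREEN total RNA. Values are % of untreated control; asterisked oligos target the amplicon region.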

Going from “1198401 (kT*dT*dA*dA*dG*d[5mC]*dA*d[5mC]*dT*dT*dT*kT*eA*k[5mC]*eA*kT; antisense) [Compound 1198401]” to “1198381 (kT*dA*dG*dA*dG*dT*dA*dT*dG*dT*dG*kG*e[5mC]*kA*eA*kT; antisense) [Compound 1198381]”, the “YAP1 (% UTC)” value falls from 63 % UTC to 19 % UTC.

Compared with “1095398 (antisense k[5mC]*dT*dG*dA*dG*dG*dT*dA*dT*dA*dA*k[5mC]*eT*kG*eG*kG) [Compound 1095398]”, “1198375 (kG*dG*dA*dA*dA*dT*dT*dG*dT*d[5mC]*dT*k[5mC]*eA*kT*eG*k[5mC]; antisense) [Compound 1198375]” is lower in “YAP1 (% UTC)” value: 38 % UTC for the first, 22 % UTC for the second.

Going from “1198454 (kA*dG*dA*d[5mC]*dT*dA*dA*dG*dT*dA*dA*kG*eG*kT*eT*kT; antisense) [Compound 1198454]” to “1095397 (antisense kT*dG*dA*dG*dG*dT*dA*dT*dA*dA*d[5mC]*kT*eG*kG*eG*k[5mC]) [Compound 1095397]”, the “YAP1 (% UTC)” value rises from 39 % UTC to 53 % UTC.

Going from “1198418 (kT*d[5mC]*dA*dG*dA*dT*dT*dT*dA*dG*dG*kA*eT*kG*e[5mC]*kA; antisense) [Compound 1198418]” to “1198452 (kA*d[5mC]*dT*dA*dA*dG*dT*dA*dA*dG*dG*kT*eT*kT*e[5mC]*k[5mC]; antisense) [Compound 1198452]”, the “YAP1 (% UTC)” value falls from 67 % UTC to 38 % UTC.

First: 1198407 (kT*dG*d[5mC]*dT*dT*dT*dG*dG*dA*dA*dG*kA*eT*k[5mC]*eT*kG; antisense) [Compound 1198407]
Second: 1198453 (kG*dA*d[5mC]*dT*dA*dA*dG*dT*dA*dA*dG*kG*eT*kT*eT*k[5mC]; antisense) [Compound 1198453]
The “YAP1 (% UTC)” value of the first is lower: 23 % UTC for the first, 48 % UTC for the second.

Same assay, conditions: Table 40 (separate experiment); SNU-449 cells, 10,000 cells per well, free uptake, 2,000 nM oligonucleotide, approx. 48 hours; RTS36584; normalized to RIBOGREEN; Yap1 mRNA relative to untreated control

Going from “1198427 (k[5mC]*dA*dA*d[5mC]*dT*d[5mC]*dT*dT*dA*dT*dA*kT*eG*kG*eT*kT; antisense) [Compound 1198427]” to “1198722 (kA*eT*kA*dT*dG*dG*dA*dA*dA*dT*dT*dG*eT*e[5mC]*kT*k[5mC]; antisense) [Compound 1198722]”, the “YAP1 (% UTC)” value falls from 62 % UTC to 48 % UTC.

With “1198802 (antisense kA*eG*kA*d[5mC]*dT*dA*dA*dG*dT*dA*dA*dG*eG*eT*kT*kT) [Compound 1198802]” the “YAP1 (% UTC)” value was 83 % UTC.

Same assay, conditions: Table 41; SNU-449 cells, 10,000 cells per well, free uptake, 2,000 nM modified oligonucleotide, approximately 48 hours; RTS36584; normalized to RIBOGREEN; Yap1 mRNA relative to untreated control cells

First: 1198772 (k[5mC]*eT*k[5mC]*dT*dT*dA*dT*dA*dT*dG*dG*dT*eT*eT*kT*kG; antisense) [Compound 1198772]
Second: 1198657 (kA*kG*d[5mC]*dA*d[5mC]*dT*dT*dT*dT*dA*d[5mC]*dA*kT*eT*kA*eG; antisense) [Compound 1198657]
The “YAP1 (% UTC)” value of the first is lower: 41 % UTC for the first, 95 % UTC for the second.

Same assay, conditions: Table 42 (separate experiment); SNU-449 cells, 10,000 cells per well, free uptake, 2,000 nM modified oligonucleotide, approximately 48 hours; RTS36584; normalized to RIBOGREEN; Yap1 mRNA relative to untreated control cells

Going from “1095482 (antisense k[5mC]*kT*dG*dA*dG*dG*dT*dA*dT*dA*dA*d[5mC]*kT*eG*kG*eG) [Compound 1095482]” to “1198236 (kG*kT*dG*d[5mC]*dT*dT*dT*dG*dG*dA*dA*eG*eA*eT*k[5mC]*kT) [Compound 1198236]”, the “YAP1 (% UTC)” value falls from 72 % UTC to 24 % UTC.

Same assay, conditions: Table 43 experiment; SNU-449 cells, 10,000 cells per well, free uptake, 2,000 nM, approximately 48 hours; RTS36584; Yap1 mRNA normalized to RIBOGREEN, relative to untreated control cells

First: 1198465 (antisense kA*kG*dT*dA*dT*dG*dT*dG*dG*d[5mC]*dA*eA*kT*eA*kA*eT) [Compound 1198465]
Second: 1198460 (antisense kG*kA*dA*dA*dT*dT*dG*dT*d[5mC]*dT*d[5mC]*eA*kT*eG*k[5mC]*e[5mC]) [Compound 1198460]
The “YAP1 (% UTC)” value of the first is higher: 68 % UTC for the first, 17 % UTC for the second.

Same assay, conditions: Table 44 experiment; SNU-449 cells, 10,000 cells per well, free uptake, 2,000 nM, approximately 48 hours; RTS36584; Yap1 mRNA normalized to RIBOGREEN, relative to untreated control cells

Going from “1198899 (kA*kG*dT*dA*dT*dG*dT*dG*dG*d[5mC]*dA*kA*dT*kA*dA*kT) [Compound 1198899]” to “1198529 (kT*kT*dA*dA*dA*dG*dT*dG*dT*dA*dT*eG*kT*e[5mC]*kA*eG; antisense) [Compound 1198529]”, the “YAP1 (% UTC)” value falls from 75 % UTC to 17 % UTC.

Same assay, conditions: Table 45; Yap1 mRNA as percent of untreated control, SNU-449 cells, single dose

Going from “1198953 (kG*kT*dA*dA*dT*dA*dT*dT*dG*d[5mC]*dA*kA*dT*k[5mC]*dT*kG; antisense) [Compound 1198953]” to “1198972 (kA*k[5mC]*dT*dA*dA*dG*dT*dA*dA*dG*dG*kT*dT*kT*d[5mC]*k[5mC]; antisense) [Compound 1198972]”, the “YAP1 (% UTC)” value falls from 58 % UTC to 46 % UTC.

Same assay, conditions: Table 46; Yap1 mRNA as percent of untreated control, SNU-449 cells, single dose

Going from “1198856 (k[5mC]*kT*dT*dA*dT*dA*dT*dG*dG*dT*dT*kT*eT*kG*eT*kG; antisense) [Compound 1198856]” to “1095407 (antisense kA*k[5mC]*dT*dG*dA*dG*dG*dT*dA*dT*dA*kA*e[5mC]*kT*eG*kG) [Compound 1095407]”, the “YAP1 (% UT)” value rises from 20 % UT to 54 % UT.

Compared with “1198841 (kT*kG*d[5mC]*dT*dT*dT*dG*dG*dA*dA*dG*kA*eT*k[5mC]*eT*kG; antisense) [Compound 1198841]”, “1198826 (kA*kA*d[5mC]*dA*d[5mC]*dT*dG*dA*dG*dG*dT*kA*eT*kA*eA*k[5mC]; antisense) [Compound 1198826]” is lower in “YAP1 (% UT)” value: 116 % UT for the first, 64 % UT for the second.

With “1198813 (antisense kA*kG*dT*dA*dT*dG*dT*dG*dG*d[5mC]*dA*kA*eT*kA*eA*kT) [Compound 1198813]” the “YAP1 (% UT)” value was 55 % UT.

Same assay, conditions: Table 48; Yap1 mRNA level relative to untreated control; modified oligonucleotides targeting SEQ ID NO.: 1 and 2

Going from “1197213 (antisense kT*kG*kT*dA*dT*dG*dT*d[5mC]*dA*dG*dA*dA*dG*kA*kG*kT) [Compound 1197213]” to “1198309 (k[5mC]*kT*kT*dT*dT*dA*d[5mC]*dA*dT*dT*dA*dG*kG*eA*kA*e[5mC]; antisense) [Compound 1198309]”, the “YAP1 (% UT)” value rises from 5 % UT to 85 % UT.

Same assay, conditions: Table 49; Yap1 mRNA level relative to untreated control; modified oligonucleotides targeting SEQ ID NO.: 1 and 2

With “1198361 (kT*kA*kA*dG*dG*dT*dT*dT*d[5mC]*d[5mC]*d[5mC]*dA*kG*eA*kT*eT; antisense) [Compound 1198361]” the “YAP1 (% UT)” value was 39 % UT.

Same assay, conditions: Table 50; Yap1 mRNA remaining as percent of untreated control (UT), SNU-449 cells, single dose

“1197234 (antisense kT*kT*kA*dG*mA*dG*dT*dA*dT*dG*dT*dG*dG*k[5mC]*kA*kA) [Compound 1197234]” was tested, and the “YAP1 (% UT)” value was 24 % UT.

Same assay, conditions: Table 51; Yap1 mRNA remaining as percent of untreated control (UT), SNU-449 cells, single dose

First: 1197252 (antisense k[5mC]*kT*kT*dT*mG*dG*dA*dA*dG*dA*dT*d[5mC]*dT*kG*kA*kA) [Compound 1197252]
Second: 1200794 (kA*kG*kA*dG*dT*mA*dT*dG*dT*dG*dG*d[5mC]*dA*kA*kT*kA; antisense) [Compound 1200794]
The “YAP1 (% UT)” value of the first is higher: 53 % UT for the first, 18 % UT for the second.

With “1197254 (antisense kT*kT*kA*dG*mG*dA*dT*dG*d[5mC]*dA*dT*dG*dG*kT*kT*kT) [Compound 1197254]” the “YAP1 (% UT)” value was 51 % UT.

Same assay, conditions: Table 52; Yap1 mRNA, modified oligonucleotides targeting SEQ ID NO: 1 and 2

First: 1200833 (kG*kA*kT*dT*dT*mA*dG*dG*dA*dT*dG*d[5mC]*dA*kT*kG*kG; antisense) [Compound 1200833]
Second: 1200857 (kA*kG*kT*dG*dT*mA*dT*dG*dT*d[5mC]*dA*dG*dA*kA*kG*kA; antisense) [Compound 1200857]
The “YAP1 (% UT)” value of the first is higher: 31 % UT for the first, 4 % UT for the second.

Compared with “1200860 (kT*kA*kA*dA*dG*mU*dG*dT*dA*dT*dG*dT*d[5mC]*kA*kG*kA; antisense) [Compound 1200860]”, “1200872 (kA*kG*kA*d[5mC]*dT*mA*dA*dG*dT*dA*dA*dG*dG*kT*kT*kT; antisense) [Compound 1200872]” is higher in “YAP1 (% UT)” value: 16 % UT for the first, 98 % UT for the second.

Same assay, conditions: Yap1 mRNA, percent of untreated control; modified oligonucleotides targeting SEQ ID NO: 1 and 2; Table 47

Compared with “1198862 (kG*kA*d[5mC]*dA*dA*d[5mC]*dT*d[5mC]*dT*dT*dA*kT*eA*kT*eG*kG; antisense) [Compound 1198862]”, “1009327 (kA*kT*kA*dT*dT*dA*dG*dA*dG*dT*dA*dT*dG*kT*kG*kG; antisense) [Compound 1009327]” is lower in “YAP1 (% UT)” value: 72 % UT for the first, 27 % UT for the second.

With “1197207 (antisense kA*kA*kT*dA*dT*dT*dG*d[5mC]*dA*dA*dT*d[5mC]*dT*kG*kT*k[5mC]) [Compound 1197207]” the “YAP1 (% UT)” value was 51 % UT.
